US7612087B2, “Heterocyclic compounds as inhibitors of beta-lactamases” (Novexel, priority 2002, dated 2009)
Where a name gives a salt, the structure may show the parent alone. Read-outs that look alike come from different tables or passages of the source.

How the values were obtained:
[1] = target: T1, β-lactamase TEM1 (Escherichia coli, UniProt P62593); assay: Inhibition of isolated β-lactamase Tem-1 (Nitrocefin hydrolysis); format: biochemical, E.coli 250HT21; details: 100 μM Nitrocefin, 50 mM sodium phosphate buffer pH7.0, 37° C.
T1 construct: The β-lactamases are isolated from bacterial strains which are resistant to penicillins and cephalosporins; endogenous in cells; host or cells: E. coli 250HT21 (natural producer; French-press lysate, 100,000 g supernatant)
T1 sequence (P62593 24-286 limits assumed): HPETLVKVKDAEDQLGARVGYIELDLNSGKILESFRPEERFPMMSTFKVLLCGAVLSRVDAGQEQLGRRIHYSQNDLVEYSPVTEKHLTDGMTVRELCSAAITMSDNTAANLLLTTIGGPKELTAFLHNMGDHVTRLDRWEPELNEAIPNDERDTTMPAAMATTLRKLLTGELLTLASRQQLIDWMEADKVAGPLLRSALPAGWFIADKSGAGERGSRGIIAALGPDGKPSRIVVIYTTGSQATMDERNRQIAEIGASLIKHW
In short: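 TEM-1 from soluble extract of E. coli 250HT21, normalized enzyme, 100 μM Nitrocefin in 50 mM sodium phosphate pH 7.0 at 37 °C. Initial-rate hydrolysis read kinetically at 485 nm, with and without 5 min enzyme–inhibitor preincubation. CI50 from 6 or 8 concentrations in duplicate.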

[2] = target: T2, β-lactamase P99 (Enterobacter cloacae, UniProt P05364); assay: biochemical
T2 construct: The β-lactamases are isolated from bacterial strains which are resistant to penicillins and cephalosporins; endogenous in cells; host or cells: Enterobacter cloacae 293HT6 (natural producer; French-press lysate, 100,000 g supernatant)
T2 sequence (P05364 21-381): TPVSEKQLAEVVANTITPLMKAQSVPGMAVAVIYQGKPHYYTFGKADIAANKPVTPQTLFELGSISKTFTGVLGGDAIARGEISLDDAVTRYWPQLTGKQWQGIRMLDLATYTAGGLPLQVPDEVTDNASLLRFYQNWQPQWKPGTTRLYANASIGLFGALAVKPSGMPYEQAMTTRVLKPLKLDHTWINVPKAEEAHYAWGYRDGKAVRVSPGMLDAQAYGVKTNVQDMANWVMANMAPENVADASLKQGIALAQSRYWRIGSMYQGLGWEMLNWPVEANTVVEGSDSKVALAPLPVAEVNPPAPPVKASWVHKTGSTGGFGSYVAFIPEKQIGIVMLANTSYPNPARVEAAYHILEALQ
In short: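 P99 β-lactamase, taken from the soluble fraction of an Enterobacter cloacae 293HT6 lysate, was assayed at 37° C. in 50 mM sodium phosphate buffer pH7.0 with 100 μM Nitrocefin as the chromogenic substrate. Hydrolysis was followed kinetically at 485 nm at initial speed, with and without a 5 mn enzyme–inhibitor preincubation. Inhibitors were tested at 6 or 8 concentrations in duplicate, and IC50 was fitted with GraFit.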

[3] = system: E. coli 250CF1 (Tem3); assay: microbe, parasite or virus in culture; format: cell-based; details: compound at 5 mg/l, 24 hours at 37° C.; for MIC of Cefotaxime in combination with the compound: Trial 4, 250CF1 E. coli Tem3; for MIC of Piperacillin in combination with the compound: Trial 4, 250CF1 Tem3
In short: (§1)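 Strains were seeded into liquid-medium dilutions of β-lactamine, each supplemented with a fixed 5 mg/l of test compound, and held 24 hours at 37° C in a heating chamber. Minimal inhibitory concentration was the level at which bacterial development was wholly absent.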

[4] = system: E. cloacae 293HT6 (Class C); assay: MIC, micro-dilution in liquid medium, β-lactamine with product at 5 mg/l; format: cell-based; details: compound at 5 mg/l, 24 hours at 37° C.; for MIC of Piperacillin in combination with the compound: Trial 9, 293HT6 Class; for MIC of Cefotaxime in combination with the compound: Trial 9, 293HT6 E. cloacae Class C
In short: as §1

[5] = system: E. coli 250BE1 (SHV4); assay: as above; format: cell-based; details: compound at 5 mg/l, 24 hours at 37° C.; for MIC of Cefotaxime in combination with the compound: Trial 7, 250BE1 E. coli SHV4; for MIC of Piperacillin in combination with the compound: Trial 7, 250BE1 SHV4
In short: as §1

[6] = system: E. coli 250HT21 (Tem1); assay: as above; format: cell-based; details: compound at 5 mg/l, 24 hours at 37° C.; for MIC of Cefotaxime in combination with the compound: Trial 2, 250HT21 E. coli Tem1; for MIC of Piperacillin in combination with the compound: Trial 2, 250HT21 Tem1
In short: as §1

[7] = system: E. coli 250HT22 (Tem2); assay: as above; format: cell-based; details: compound at 5 mg/l, 24 hours at 37° C.; for MIC of Cefotaxime in combination with the compound: Trial 3, 250HT22 E. coli Tem2; for MIC of Piperacillin in combination with the compound: Trial 3, 250HT22 Tem2
In short: as §1

[8] = system: E. coli 250HT23 (Class D); assay: as above; format: cell-based; details: compound at 5 mg/l, 24 hours at 37° C.; for MIC of Piperacillin in combination with the compound: Trial 8, 250HT23 Class D; for MIC of Cefotaxime in combination with the compound: Trial 8, 250HT23 E. coli Class D
In short: as §1

[9] = system: E. coli 250HT26 (SHV1); assay: as above; format: cell-based; details: compound at 5 mg/l, 24 hours at 37° C.; for MIC of Cefotaxime in combination with the compound: Trial 6, 250HT26 E. coli SHV1; for MIC of Piperacillin in combination with the compound: Trial 6, 250HT26 SHV1
In short: as §1

[10] = system: E. coli 250SJ1 (Tem7); assay: as above; format: cell-based; details: compound at 5 mg/l, 24 hours at 37° C.; for MIC of Cefotaxime in combination with the compound: Trial 5, 250SJ1 E. coli Tem7; for MIC of Piperacillin in combination with the compound: Trial 5, 250SJ1 Tem7
In short: as §1

[11] = system: P. aeruginosa 391HT7 (PSE); assay: as above; format: cell-based; details: compound at 5 mg/l, 24 hours at 37° C.; for MIC of Cefotaxime in combination with the compound: Trial 11, 391HT7 P. aeruginosa PSE; for MIC of Piperacillin in combination with the compound: Trial 11, 391HT7 PSE
In short: as §1

[12] = system: P. aeruginosa 391HT8 (PSE); assay: as above; format: cell-based; details: compound at 5 mg/l, 24 hours at 37° C.; for MIC of Cefotaxime in combination with the compound: Trial 12, 391HT8 P. aeruginosa PSE; for MIC of Piperacillin in combination with the compound: Trial 12, 391HT8 PSE
In short: as §1

[13] = system: S. aureus 011GO66 (PeniR); assay: as above; format: cell-based; details: compound at 5 mg/l, 24 hours at 37° C.; for MIC of Cefotaxime in combination with the compound: Trial 1, 011GO66 S. aureus PeniR; for MIC of Piperacillin in combination with the compound: Trial 1, 011GO66 peniR
In short: as §1

[14] = system: Serratia 301HT6; assay: as above; format: cell-based; details: compound at 5 mg/l; Trial 10, 301HT6 Serratia; 24 hours at 37° C.
In short: as §1

[15] = 100 μM Nitrocefin, 50 mM sodium phosphate buffer pH7.0, 37° C., read-out: IC50 nM/P99

Row | SMILES | IC50 [1] | IC50 [2, 15] | MIC of Cefotaxime in combination with the compound [3] | MIC of Piperacillin in combination with the compound [3] | MIC of Piperacillin in combination with the compound [4] | MIC of Cefotaxime in combination with the compound [4] | MIC of Cefotaxime in combination with the compound [5] | MIC of Piperacillin in combination with the compound [5] | MIC of Cefotaxime in combination with the compound [6] | MIC of Piperacillin in combination with the compound [6] | MIC of Cefotaxime in combination with the compound [7] | MIC of Piperacillin in combination with the compound [7] | MIC of Piperacillin in combination with the compound [8] | MIC of Cefotaxime in combination with the compound [8] | MIC of Piperacillin in combination with the compound [9] | MIC of Piperacillin in combination with the compound [10] | MIC of Piperacillin in combination with the compound [11] | MIC of Piperacillin in combination with the compound [12] | MIC of Piperacillin in combination with the compound [13] | MIC of Piperacillin in combination with the compound [14] | further results
1 | O=C(NCc1ccncc1)[C@H]1CC[C@@H]2CN1C(=O)N2OS(=O)(=O)[O-].[Na+] (relative stereo) [Example 42, sodium salt of trans-7-oxo-N-[(4-pyridinyl)methyl]-6-(sulphooxy)-1,6-diazabicyclo[3.2.1]octane-2-carboxamide] | 25 nM | 70 nM | <=0.04 μg/ml | 2.5 µg/mL | 1.2 µg/mL | 0.3 µg/mL | <=0.04 μg/ml | 5 µg/mL | <=0.04 μg/ml | 1.2 µg/mL | <=0.04 μg/ml | 2.5 µg/mL | 5 µg/mL | <=0.04 μg/ml | 5 µg/mL | 2.5 µg/mL | >40 µg/mL | >40 µg/mL | 1.2 µg/mL | 0.6 µg/mL | MIC of Cefotaxime in combination with the compound [9]: <=0.04 μg/ml; MIC of Cefotaxime in combination with the compound [10]: <=0.04 μg/ml; MIC of Cefotaxime in combination with the compound [11]: 20 µg/mL; MIC of Cefotaxime in combination with the compound [12]: 20 µg/mL; MIC of Cefotaxime in combination with the compound [13]: 2.5 µg/mL; MIC of Cefotaxime in combination with the compound [14]: <=0.04 μg/ml
2 | NC(=O)Nc1cccc(NC(=O)[C@H]2CC[C@@H]3CN2C(=O)N3OS(=O)(=O)[O-])c1.[Na+] (relative stereo) [Example 46, sodium salt of trans-N-[3-[(aminocarbonyl)amino]phenyl]-7-oxo-6-(sulphooxy)-1,6-diazabicyclo[3.2.1]octane-2-carboxamide] | 26 nM | 70 nM | – | 2.5 µg/mL | >40 µg/mL | – | – | 40 µg/mL | – | 5 µg/mL | – | >40 µg/mL | 10 µg/mL | – | >40 µg/mL | >40 µg/mL | >40 µg/mL | >40 µg/mL | 0.6 µg/mL | 1.2 µg/mL | –
3 | NC(=O)C(NC(=O)[C@H]1CC[C@@H]2CN1C(=O)N2OS(=O)(=O)[O-])c1ccccc1.[Na+] (relative stereo) [Example 47, sodium salt of trans-N-(2-amino-2-oxo-1-phenylethyl)-7-oxo-6-(sulphooxy)-1,6-diazabicyclo[3.2.1]octane-2-carboxamide] | 18 nM | 43 nM | – | 5 µg/mL | >40 µg/mL | – | – | 5 µg/mL | – | 2.5 µg/mL | – | 20 µg/mL | 10 µg/mL | – | 2.5 µg/mL | 40 µg/mL | >40 µg/mL | >40 µg/mL | 0.6 µg/mL | 1.2 µg/mL | –
4 | O=C(OCCc1ccccn1)[C@H]1CC[C@@H]2CN1C(=O)N2OS(=O)(=O)[O-].[Na+] (relative stereo) [Example 50, sodium salt of trans 2-(2-pyridinyl)ethyl 7-oxo-6-(sulphooxy)-1,6-diazabicyclo[3.2.1]octane-2-carboxylate] | 18 nM | 150 nM | – | 5 µg/mL | >40 µg/mL | – | – | 40 µg/mL | – | 2.5 µg/mL | – | 40 µg/mL | 40 µg/mL | – | 40 µg/mL | 40 µg/mL | >40 µg/mL | >40 µg/mL | 1.2 µg/mL | 0.6 µg/mL | –
5 | O=C(NCc1cccnc1)C1CCC2CN1C(=O)N2OS(=O)(=O)O (stereo not drawn) [Example 43, sodium salt of trans-7-oxo-N-(3-pyridinylmethyl)-6-(sulphooxy)-1,6-diazabicyclo[3.2.1]octane-2-carboxamide] | 31 nM | – | 0.08 µg/mL | 2.5 µg/mL | 2.5 µg/mL | 0.08 µg/mL | <=0.04 μg/ml | 10 µg/mL | <=0.04 μg/ml | 1.2 µg/mL | <=0.04 μg/ml | 1.2 µg/mL | 2.5 µg/mL | <=0.04 μg/ml | 5 µg/mL | 5 µg/mL | >40 µg/mL | >40 µg/mL | 1.2 µg/mL | 0.6 µg/mL | IC50 [2]: 76 nM; MIC of Cefotaxime in combination with the compound [9]: <=0.04 μg/ml; MIC of Cefotaxime in combination with the compound [10]: <=0.04 μg/ml; MIC of Cefotaxime in combination with the compound [11]: 20 µg/mL; MIC of Cefotaxime in combination with the compound [12]: 20 µg/mL; MIC of Cefotaxime in combination with the compound [13]: 2.5 µg/mL; MIC of Cefotaxime in combination with the compound [14]: <=0.04 μg/ml
